Measurements published in patent US11225505B2, “Antimicrobial polymyxin derivative compounds” (MONASH UNIVERSITY, priority 2015, dated 2022).
Like-named read-outs stand apart in the source and are kept apart here. Where a SMILES comes first, the peptide text is derived from it. Bridges are numbered along the chain shown (N, C = ends). [ ]: non-standard residue; d: D form. The star is where a group is joined. Benzothiazole(5-carbonyl) = O=C(c1ccc2scnc2c1)*; Indazole3carbonyl = O=C(c1n[nH]c2ccccc12)*; Quinoline3carbonyl = O=C(c1cnc2ccccc2c1)*; Quinaldoyl = O=C(c1ccc2ccccc2n1)*; X11 = Cn1nc(C(=O)*)c2ccccc21; X23 = O=C(c1cc2ccccc2[nH]1)*; X69 = Cn1c(C(=O)*)nc2ccccc21; Dab = NCC[C@H](N)C(=O)O; Abu = CC[C@H](N)C(=O)O; Dap = NC[C@H](N)C(=O)O

How the values were obtained:
Type in all cases: cell-based
[1] = system: Acinetobacter baumannii FADDI-AB030; assay: microbe, parasite or virus in culture
How it was run: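 Broth microdilution MIC in cation-adjusted Mueller-Hinton broth per CLSI M100-S24; lipopeptides tested as TFA salts. FADDI-AB030 is a multidrug-resistant clinical isolate. Polymyxin B sulphate served as control.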

[2] = system: Klebsiella pneumoniae FADDI-KP032
How it was run: (§1)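 The read-out is the MIC, obtained by CLSI broth microdilution (M100-S24) in cation-adjusted Mueller-Hinton broth. The compounds were lipopeptide TFA salts, and polymyxin B sulphate served as control.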

[3] = system: Acinetobacter baumannii ATCC 17978
How it was run: as §1

[4] = system: Enterobacter cloacae FADDI-EC006
How it was run: as §1

[5] = system: Acinetobacter baumannii FADDI-AB034
How it was run: as §1

[6] = system: Pseudomonas aeruginosa FADDI-PA01
How it was run: as §1

[7] = system: Pseudomonas aeruginosa FADDI-PA022
How it was run: as §1

[8] = system: Klebsiella pneumoniae Kp BM1
How it was run: (§2)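 MICs were determined by broth microdilution in cation-adjusted Mueller-Hinton broth following the CLSI M100-S24 protocol. Lipopeptides were tested as trifluoroacetic acid salts against polymyxin-susceptible Gram-negative strains, with polymyxin B sulphate as control. FADDI-PA022 and FADDI-AB034 are multidrug-resistant clinical isolates.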

[9] = system: Enterobacter cloacae FADDI-EC003
How it was run: as §1

[10] = system: Pseudomonas aeruginosa FADDI-PA038
How it was run: as §1

[11] = system: Klebsiella pneumoniae FADDI-KP022
How it was run: as §1

[12] = system: Pseudomonas aeruginosa ATCC 27853
How it was run: as §1

[13] = system: Enterobacter cloacae FADDI-EC001
How it was run: as §2

Measured: Minimum inhibitory concentration

CC[C@@H]1NC(=O)[C@@H](CC(C)C)NC(=O)[C@H](CCN)NC(=O)[C@@H](NC(=O)[C@H](CN)NC(=O)[C@@H](NC(=O)[C@H](CCN)NC(=O)c2nn(C)c3ccccc23)[C@@H](C)O)CCNC(=O)[C@H]([C@@H](C)O)NC(=O)[C@H](CCN)NC(=O)[C@H](CCN)NC1=O [Compound 51] (X11-[Dab]T[Dap][Dab][Dab][dL][Abu][Dab][Dab]T; lactam 4-C)
0.5 µg/mL: [4]; FADDI-EC006
1 µg/mL: [10]; FADDI-PA038
<0.125 µg/mL: [1]; FADDI-AB030 | [2]; FADDI-KP032 | [8]; Kp BM1 | [11]; FADDI-KP022 | [13]; FADDI-EC001
0.25 µg/mL: [3]; ATCC 17978 | [5]; FADDI-AB034 | [6]; FADDI- | [7]; FADDI-PA022 | [9]; FADDI-EC003 | [12]; ATCC 27853

CC[C@@H]1NC(=O)[C@@H](CC(C)C)NC(=O)[C@H](CCN)NC(=O)[C@@H](NC(=O)[C@H](CN)NC(=O)[C@@H](NC(=O)[C@H](CCN)NC(=O)c2cnc3ccccc3c2)[C@@H](C)O)CCNC(=O)[C@H]([C@@H](C)O)NC(=O)[C@H](CCN)NC(=O)[C@H](CCN)NC1=O [Compound 52] (Quinoline3carbonyl-[Dab]T[Dap][Dab][Dab][dL][Abu][Dab][Dab]T; lactam 4-C)
1 µg/mL: [4]; FADDI-EC006 | [5]; FADDI-AB034
0.5 µg/mL: [1]; FADDI-AB030 | [6]; FADDI- | [7]; FADDI-PA022 | [8]; Kp BM1 | [9]; FADDI-EC003 | [12]; ATCC 27853
2 µg/mL: [3]; ATCC 17978
<0.125 µg/mL: [2]; FADDI-KP032 | [11]; FADDI-KP022 | [13]; FADDI-EC001
0.25 µg/mL: [10]; FADDI-PA038

CC[C@@H]1NC(=O)[C@@H](CC(C)C)NC(=O)[C@H](CCN)NC(=O)[C@@H](NC(=O)[C@H](CN)NC(=O)[C@@H](NC(=O)[C@H](CCN)NC(=O)c2ccc3scnc3c2)[C@@H](C)O)CCNC(=O)[C@H]([C@@H](C)O)NC(=O)[C@H](CCN)NC(=O)[C@H](CCN)NC1=O [Compound 53] ({Benzothiazole(5-carbonyl)}-[Dab]T[Dap][Dab][Dab][dL][Abu][Dab][Dab]T; lactam 4-C; N-terminus assumed)
1 µg/mL: [1]; FADDI-AB030
2 µg/mL: [3]; ATCC 17978 | [4]; FADDI-EC006 | [5]; FADDI-AB034
0.5 µg/mL: [6]; FADDI- | [8]; Kp BM1 | [10]; FADDI-PA038 | [12]; ATCC 27853
0.25 µg/mL: [7]; FADDI-PA022 | [9]; FADDI-EC003
<0.125 µg/mL: [2]; FADDI-KP032 | [11]; FADDI-KP022 | [13]; FADDI-EC001

CC[C@@H]1NC(=O)[C@@H](CC(C)C)NC(=O)[C@H](CCN)NC(=O)[C@@H](NC(=O)[C@H](CN)NC(=O)[C@@H](NC(=O)[C@H](CCN)NC(=O)c2n[nH]c3ccccc23)[C@@H](C)O)CCNC(=O)[C@H]([C@@H](C)O)NC(=O)[C@H](CCN)NC(=O)[C@H](CCN)NC1=O [Compound 54] (Indazole3carbonyl-[Dab]T[Dap][Dab][Dab][dL][Abu][Dab][Dab]T; lactam 4-C)
1 µg/mL: [3]; A. baumannii ATCC 17978, CAMHB broth microdilution
<0.125 µg/mL: [2]; K. pneumoniae FADDI-KP032, CAMHB broth microdilution | [8]; K. pneumoniae Kp BM1, CAMHB broth microdilution | [11]; K. pneumoniae FADDI-KP022, CAMHB broth microdilution | [13]; E. cloacae FADDI-EC001, CAMHB broth microdilution
0.5 µg/mL: [4]; E. cloacae FADDI-EC006, CAMHB broth microdilution | [5]; A. baumannii FADDI-AB034, CAMHB broth microdilution | [7]; P. aeruginosa FADDI-PA022, CAMHB broth microdilution | [9]; E. cloacae FADDI-EC003, CAMHB broth microdilution | [12]; P. aeruginosa ATCC 27853, CAMHB broth microdilution
0.25 µg/mL: [1]; A. baumannii FADDI-AB030, CAMHB broth microdilution | [6]; P. aeruginosa FADDI-PA01, CAMHB broth microdilution | [10]; P. aeruginosa FADDI-PA038, CAMHB broth microdilution

CC[C@@H]1NC(=O)[C@@H](CC(C)C)NC(=O)[C@H](CCN)NC(=O)[C@@H](NC(=O)[C@H](CN)NC(=O)[C@@H](NC(=O)[C@H](CCN)NC(=O)c2ccc3ccccc3n2)[C@@H](C)O)CCNC(=O)[C@H]([C@@H](C)O)NC(=O)[C@H](CCN)NC(=O)[C@H](CCN)NC1=O [Compound 55] (Quinaldoyl-[Dab]T[Dap][Dab][Dab][dL][Abu][Dab][Dab]T; lactam 4-C)
<0.125 µg/mL: [2]; FADDI-KP032 | [4]; FADDI-EC006 | [7]; FADDI-PA022 | [9]; FADDI-EC003 | [11]; FADDI-KP022 | [13]; FADDI-EC001
1 µg/mL: [3]; ATCC 17978
0.5 µg/mL: [8]; Kp BM1
0.25 µg/mL: [1]; FADDI-AB030 | [5]; FADDI-AB034 | [6]; FADDI- | [10]; FADDI-PA038 | [12]; ATCC 27853

CC[C@@H]1NC(=O)[C@@H](CC(C)C)NC(=O)[C@H](CCN)NC(=O)[C@@H](NC(=O)[C@H](CN)NC(=O)[C@@H](NC(=O)[C@H](CCN)NC(=O)c2cc3ccccc3[nH]2)[C@@H](C)O)CCNC(=O)[C@H]([C@@H](C)O)NC(=O)[C@H](CCN)NC(=O)[C@H](CCN)NC1=O [Compound 56] (X23-[Dab]T[Dap][Dab][Dab][dL][Abu][Dab][Dab]T; lactam 4-C)
<0.125 µg/mL: [2]; FADDI-KP032 | [5]; FADDI-AB034 | [6]; FADDI- | [11]; FADDI-KP022 | [13]; FADDI-EC001
0.25 µg/mL: [1]; FADDI-AB030 | [3]; ATCC 17978 | [7]; FADDI-PA022 | [8]; Kp BM1 | [12]; ATCC 27853
0.5 µg/mL: [4]; FADDI-EC006 | [9]; FADDI-EC003 | [10]; FADDI-PA038

CC[C@@H]1NC(=O)[C@@H](CC(C)C)NC(=O)[C@H](CCN)NC(=O)[C@@H](NC(=O)[C@H](CN)NC(=O)[C@@H](NC(=O)[C@H](CCN)NC(=O)c2nc3ccccc3n2C)[C@@H](C)O)CCNC(=O)[C@H]([C@@H](C)O)NC(=O)[C@H](CCN)NC(=O)[C@H](CCN)NC1=O [Compound 57] (X69-[Dab]T[Dap][Dab][Dab][dL][Abu][Dab][Dab]T; lactam 4-C)
1 µg/mL: [4]; FADDI-EC006
0.5 µg/mL: [3]; ATCC 17978 | [5]; FADDI-AB034 | [7]; FADDI-PA022 | [10]; FADDI-PA038 | [12]; ATCC 27853
<0.125 µg/mL: [2]; FADDI-KP032 | [11]; FADDI-KP022 | [13]; FADDI-EC001
0.25 µg/mL: [1]; FADDI-AB030 | [6]; FADDI- | [8]; Kp BM1 | [9]; FADDI-EC003
